“Also recorded” adds a separate entry of the source.
Columns and labels:
Propionibacterium acnes = assay: Antibacterial activity of nanoparticles versus free fatty acid in aqueous system (PBS); format: cell-based
From the text: (§1) The present inventors further tested the antibacterial activity of the nanoparticles of the present invention and free fatty acids in an aqueous system.

H. pylori = assay: as above; format: cell-based, Helicobacter pylori; details: same concentration (0.3% w/v)
From the text: as §1

In the case of CCCCCCCCCCCC(=O)O [free lauric acid, lauric acid], the “bactericidal effect on Propionibacterium acnes in aqueous system” value (Propionibacterium acnes) is reported as “almost no bactericidal effect”.

CCCC/C=C\CCCCCCCC(=O)O [free myristoleic acid, myristoleic acid] was tested, and the “bactericidal activity against H. pylori in aqueous system” value (H. pylori) was “does not exhibit activities against H. pylori; also recorded: did not show bactericidal activity”.

From patent publication US11266604B2 (ALAYA (SHANGHAI) BIOSCIENCE CO., LTD, priority 2015, dated 2022)
